In PubChem BioAssay AID1963979 (Molecular Pharmacology Branch, DTP, NCI, 2024):
Values belong to the molecule of their own block, whether it stands above or below them.

Tested on: 361931-004-R-J1-PDC multicell spheroid viability
Assay: Anticancer human tumor 361931-004-R-J1-PDC patient-derived colon adenocarcinoma cell line growth inhibition [PI3K]
Details: for IC50: curve of first compound; for viability, T/C: stronger effect = lower value
Procedure, shortened: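 Tumor cells grown as multi-cell spheroids with HUVEC endothelial cells and MSC fibroblast-like stroma were treated with targeted agents combined with inavolisib, alpelisib, duvelisib or copanlisib. Doses fell in half-log steps from near clinical Cmax, else from 10 microM. Viability was measured.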

[1] = second compound 0.0316 µM, first compound 0.0316 µM
[2] = second compound 0.0316 µM, first compound 0.1 µM
[3] = second compound 0.0316 µM, first compound 0.316 µM
[4] = second compound 0.0316 µM, first compound 1 µM
[5] = second compound 0.1 µM, first compound 0.0316 µM
[6] = second compound 0.1 µM, first compound 0.1 µM
[7] = second compound 0.1 µM, first compound 0.316 µM
[8] = second compound 0.1 µM, first compound 1 µM
[9] = second compound 0.316 µM, first compound 0.0316 µM
[10] = second compound 0.316 µM, first compound 0.1 µM
[11] = second compound 0.316 µM, first compound 0.316 µM
[12] = second compound 0.316 µM, first compound 1 µM
[13] = second compound 1 µM, first compound 0.0316 µM
[14] = second compound 1 µM, first compound 0.1 µM
[15] = second compound 1 µM, first compound 0.316 µM
[16] = second compound 1 µM, first compound 1 µM
[17] = second compound 3.16 µM, first compound 0.0316 µM
[18] = second compound 3.16 µM, first compound 0.1 µM
[19] = second compound 3.16 µM, first compound 0.316 µM
[20] = second compound 3.16 µM, first compound 1 µM
[21] = second compound 10 µM, first compound 0.0316 µM
[22] = second compound 10 µM, first compound 0.1 µM
[23] = second compound 10 µM, first compound 0.316 µM
[24] = second compound 10 µM, first compound 1 µM
[25] = second compound 0.0316 µM, first compound 3.16 µM
[26] = second compound 0.0316 µM, first compound 10 µM
[27] = second compound 0.1 µM, first compound 3.16 µM
[28] = second compound 0.1 µM, first compound 10 µM
[29] = second compound 0.316 µM, first compound 3.16 µM
[30] = second compound 0.316 µM, first compound 10 µM
[31] = second compound 1 µM, first compound 3.16 µM
[32] = second compound 1 µM, first compound 10 µM
[33] = second compound 3.16 µM, first compound 3.16 µM
[34] = second compound 3.16 µM, first compound 10 µM
[35] = second compound 10 µM, first compound 3.16 µM
[36] = second compound 10 µM, first compound 10 µM
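Further: spheroids exposed to agents for seven days before readout.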

IC50 (second compound 0.0316 µM): > 1000 nM
IC50 (second compound 0.1 µM): > 1000 nM
IC50 (second compound 0.316 µM): > 1000 nM
IC50 (second compound 1 µM): > 1000 nM
IC50 (second compound 3.16 µM): > 1000 nM
IC50 (second compound 10 µM): > 1000 nM
SMILES: CCN1CCN(Cc2ccc(Nc3ncc(F)c(-c4cc(F)c5nc(C)n(C(C)C)c5c4)n3)nc2)CC1 + CC(Nc1ncnc2nc[nH]c12)c1cc2cccc(Cl)c2c(=O)n1-c1ccccc1
viability, T/C (second compound 0.0316 µM, first compound 0.00316 µM): 106%
viability, T/C (second compound 0.0316 µM, first compound 0.01 µM): 103%
viability, T/C [1]: 103%
viability, T/C [2]: 98.8%
viability, T/C [3]: 109%
viability, T/C [4]: 105%
viability, T/C (second compound 0.1 µM, first compound 0.00316 µM): 105%
viability, T/C (second compound 0.1 µM, first compound 0.01 µM): 105%
viability, T/C [5]: 103%
viability, T/C [6]: 97.6%
viability, T/C [7]: 109%
viability, T/C [8]: 100%
viability, T/C (second compound 0.316 µM, first compound 0.00316 µM): 101%
viability, T/C (second compound 0.316 µM, first compound 0.01 µM): 112%
viability, T/C [9]: 102%
viability, T/C [10]: 110%
viability, T/C [11]: 106%
viability, T/C [12]: 91.9%
viability, T/C (second compound 1 µM, first compound 0.00316 µM): 105%
viability, T/C (second compound 1 µM, first compound 0.01 µM): 101%
viability, T/C [13]: 102%
viability, T/C [14]: 104%
viability, T/C [15]: 108%
viability, T/C [16]: 93%
viability, T/C (second compound 3.16 µM, first compound 0.00316 µM): 109%
viability, T/C (second compound 3.16 µM, first compound 0.01 µM): 107%
viability, T/C [17]: 101%
viability, T/C [18]: 104%
viability, T/C [19]: 100%
viability, T/C [20]: 81.8%
viability, T/C (second compound 10 µM, first compound 0.00316 µM): 105%
viability, T/C (second compound 10 µM, first compound 0.01 µM): 102%
viability, T/C [21]: 106%
viability, T/C [22]: 96.5%
viability, T/C [23]: 89.5%
viability, T/C [24]: 69%

IC50 (second compound 0.0316 µM): 2940 nM
IC50 (second compound 0.1 µM): 3340 nM
IC50 (second compound 0.316 µM): 2170 nM
IC50 (second compound 1 µM): 2550 nM
IC50 (second compound 3.16 µM): 2210 nM
IC50 (second compound 10 µM): 2490 nM
SMILES: Cn1ncc(Cl)c1-c1cc(C(=O)NC(CN)Cc2cccc(F)c2)sc1Cl (stereo unspecified) + CC(Nc1ncnc2nc[nH]c12)c1cc2cccc(Cl)c2c(=O)n1-c1ccccc1
viability, T/C [1]: 95.2%
viability, T/C [2]: 98.3%
viability, T/C [3]: 88.7%
viability, T/C [4]: 70.6%
viability, T/C [25]: 49.7%
viability, T/C [26]: 32.1%
viability, T/C [5]: 103%
viability, T/C [6]: 104%
viability, T/C [7]: 92.7%
viability, T/C [8]: 77.5%
viability, T/C [27]: 50.8%
viability, T/C [28]: 30.9%
viability, T/C [9]: 106%
viability, T/C [10]: 108%
viability, T/C [11]: 90.8%
viability, T/C [12]: 60.4%
viability, T/C [29]: 48.5%
viability, T/C [30]: 27.1%
viability, T/C [13]: 111%
viability, T/C [14]: 101%
viability, T/C [15]: 90.1%
viability, T/C [16]: 61.8%
viability, T/C [31]: 49.9%
viability, T/C [32]: 31%
viability, T/C [17]: 105%
viability, T/C [18]: 105%
viability, T/C [19]: 89.4%
viability, T/C [20]: 65.4%
viability, T/C [33]: 44.4%
viability, T/C [34]: 24.5%
viability, T/C [21]: 97.2%
viability, T/C [22]: 95.8%
viability, T/C [23]: 89.5%
viability, T/C [24]: 75.4%
viability, T/C [35]: 43%
viability, T/C [36]: 25%

IC50 (second compound 0.0316 µM): > 10000 nM
IC50 (second compound 0.1 µM): > 10000 nM
IC50 (second compound 0.316 µM): > 10000 nM
IC50 (second compound 1 µM): > 10000 nM
IC50 (second compound 3.16 µM): 9790 nM
IC50 (second compound 10 µM): 5140 nM
SMILES: Cn1nccc1Nc1nccc(-c2ccn(C(CO)c3ccc(Cl)c(F)c3)c(=O)c2)n1 (stereo unspecified) + CC(Nc1ncnc2nc[nH]c12)c1cc2cccc(Cl)c2c(=O)n1-c1ccccc1
viability, T/C [1]: 101%
viability, T/C [2]: 98.8%
viability, T/C [3]: 100%
viability, T/C [4]: 97.7%
viability, T/C [25]: 87.9%
viability, T/C [26]: 60.2%
viability, T/C [5]: 101%
viability, T/C [6]: 99.4%
viability, T/C [7]: 97%
viability, T/C [8]: 93.2%
viability, T/C [27]: 86.7%
viability, T/C [28]: 65.2%
viability, T/C [9]: 107%
viability, T/C [10]: 107%
viability, T/C [11]: 86.5%
viability, T/C [12]: 93.8%
viability, T/C [29]: 89.4%
viability, T/C [30]: 61.3%
viability, T/C [13]: 109%
viability, T/C [14]: 99.5%
viability, T/C [15]: 99.3%
viability, T/C [16]: 90.8%
viability, T/C [31]: 92.6%
viability, T/C [32]: 56.5%
viability, T/C [17]: 107%
viability, T/C [18]: 105%
viability, T/C [19]: 100%
viability, T/C [20]: 92.2%
viability, T/C [33]: 87.1%
viability, T/C [34]: 48.3%
viability, T/C [21]: 109%
viability, T/C [22]: 99.5%
viability, T/C [23]: 92.1%
viability, T/C [24]: 83.8%
viability, T/C [35]: 64.1%
viability, T/C [36]: 31.4%
